# Reference: US7897730B2, “TRAIL receptor-binding agents and uses of the same” (Beijing Cotimes Biotech Ltd., priority 2006, dated 2011)
# Experiments:
# [1] = test system: MDA231 human breast cancer cell line; assay: Xenograft model, tumor size; assay type: in vivo, Balb/c nude mice
# From the text: Human cancer cell lines that were used for generation of murine xenograft models of human cancer are: a) MDA231 human breast cancer cell line; b) 7402 human liver cancer cell line; c) Colo205 human colon cancer cell lines; and d) MIAcapa human pancreatic cancer cell line. All cells were purchased from ATCC, and cultured in DMEM supplemented with 10% FCS.
# Six (6) to 8 week-old Balb/c nude mice were inoculated subcutaneously with 1×10^7 human cancer cells. At day 7-14 after tumor inoculation depending on inoculated tumor cell lines, over 90% mice developed viable tumor mass. The tumor-bearing mice were randomly divided into two groups: one was untreated control group, and another was CTB003 treated group. Human cancer tumor growth was evaluated by sizes of tumor. After inoculation, tumor sizes were measured weekly.
# The treatment was repeated six times within three weeks.
# (§1) Six (6) to 8 week-old Balb/c nude mice were inoculated subcutaneously with 1×10^7 human MDA231 breast cancer cells. […] Human breast cancer tumor growth was evaluated by measuring the size of tumor. After inoculation the tumor sizes were measured in mice weekly. […]
# as §1
# [2] = test system: human breast cancer cells (BT474); assay: ATPLite cell viability, CTB003 with chemotherapeutic drug; assay type: cell-based; settings: combination with CTB003
# Procedure: (§2) The cell lines selected for study included: human breast cancer cells (BT474), human colon cancer cells (SW620), human lung cancer cells (A437), human colon cancer cells (SW1116), and human pancreatic cancer cells (Panc 1). All cells were purchased from ATCC.
# (§3) After culture at 37° C. overnight, cell viability was determined using the ATPLite kit according to the manufacturer's instructions (Packard Instruments, Meriden, Conn.): add 50 μl of cell lysis buffer and then 50 μl of substrate buffer. The reaction was counted in a luminescent reader. Cell viability was calculated as (cpm of treated cells/cmp of control cells)×100%.
# [3] = test system: human colon cancer cells (SW1116); assay: ATPLite cell viability, CTB003 with chemotherapeutic drug or mono-specific antibody; assay type: cell-based; settings: for effect on CTB003 killing: combination with CTB003
# Procedure: as §2, §3
# After culture at 37° C. for 16 h, cell viability was determined using the ATPLite kit according to the manufacturer's instructions (Packard Instruments, Meriden, Conn.): add 50 μl of cell lysis buffer and then 50 μl of substrate buffer. The reaction was counted in a luminescent reader. Cell viability was calculated as (cpm of treated cells/cmp of control cells)×100%.
# [4] = test system: human lung cancer cells (A437); assay: ATPLite cell viability, CTB003 with chemotherapeutic drug; assay type: cell-based; settings: combination with CTB003
# Procedure: as §2, §3
# [5] = test system: human pancreatic cancer cells (Panc-1); assay: as above; assay type: cell-based; settings: combination with CTB003
# Procedure: as §2, §3
# [6] = test system: human colon cancer cells (SW620); assay: as above; assay type: cell-based; settings: combination with CTB003
# Procedure: as §2, §3
# [7] = test system: Human B lymphoma cells (Ramos); assay: Flow cytometry analysis of cell surface binding; settings: 10 μg/ml antibody; cells express high TRAIL-R1, low TRAIL-R2
# From the text: (§4) Tumor cells may express differential levels of cell surface of TRAIL-R1 and TRAIL-R2, therefore a monospecific antibody directed against either TRAIL-R1 or TRAIL-R2 may not able to bind to and induce apoptosis of all tumor cells when administered alone. […] Human T leukemia cells (Jurkat) only express TRAIL-R2 but not TRAIL-R1. Human B lymphoma cells (Ramos) express high levels of TRAIL-R1 but low levels of TRAIL-R2.
# (§5) 1×10^6 single cells were collected from cell culture medium and washed twice with FACS buffer (PBS containing 5% FCS, 0.1% NaN3, pH7.4). […] After washing twice with 1 ml FACS buffer, cells were further incubated with PE-conjugated goat anti-mouse IgG1 antibody on ice for 30 minutes. After washing twice with 1 ml FACS buffer, cells were suspended in 0.5 ml FACS buffer and 10,000 viable cells were analyzed by FACScan flow cytometer.
# [8] = test system: Human T leukemia cells (Jurkat); assay: Flow cytometry analysis of cell surface binding; settings: 10 μg/ml antibody; cells express TRAIL-R2 but not TRAIL-R1
# From the text: as §4, §5
# [9] = test system: Human B lymphoma cells (Ramos); assay: ATPLite cell viability, apoptosis-inducing activity; assay type: cell-based; settings: 10-1000 ng/ml antibody, 16 h
# Procedure: as §4
# After culture at 37° C. for 16 h, the cell viability of each culture was determined using the ATPLite kit according to the manufacturer's instructions (Packard Instruments, Meriden, Conn.): add 50 μl of cell lysis buffer and then 50 μl of substrate buffer. The reaction was counted in a luminescent reader. Cell viability was calculated as (cpm of treated cells/cmp of control cells)×100%.
# [10] = test system: binding of CTB003 to TRAIL-R2; assay: Competitive inhibition ELISA with polypeptides; design: species or system human; settings: 1 μg/ml CTB003, various concentrations of peptide
# Sequence of binding of CTB003 to TRAIL-R2 (as listed by the source): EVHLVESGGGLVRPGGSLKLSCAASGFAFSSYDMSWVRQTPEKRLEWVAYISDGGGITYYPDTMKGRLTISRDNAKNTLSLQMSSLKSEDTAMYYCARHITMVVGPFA
# Sequence of binding of CTB003 to TRAIL-R2 (as listed by the source): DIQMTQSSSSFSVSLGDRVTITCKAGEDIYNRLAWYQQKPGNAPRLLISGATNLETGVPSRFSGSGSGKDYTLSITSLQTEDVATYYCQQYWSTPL
# Sequence of binding of CTB003 to TRAIL-R2 (O14763 56-210 partner limits assumed): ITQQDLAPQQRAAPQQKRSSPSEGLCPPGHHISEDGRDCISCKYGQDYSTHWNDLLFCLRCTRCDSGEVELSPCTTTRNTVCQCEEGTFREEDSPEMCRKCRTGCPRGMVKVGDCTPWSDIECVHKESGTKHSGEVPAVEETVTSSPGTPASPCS
# Procedure: (§6) ELISA plate was coated with 1 μg/ml TRAIL-R2-Fc fusion protein in PBS at 4° C. overnight. After washing three times with PBS, the plate was blocked with 3% BSA PBS at room temperature for one hour. […] The unbound antibodies were removed by washing three time with PBS, and then HRP-conjugated goat anti-mouse IgG1 was added at 37° C. for 30 minutes. After washing three times with PBS, TMB substrate buffer was added for 10 minutes and then the reaction was stopped by adding 2N H2SO4. The values of optical density were recorded in a ELISA plate reader with a dual wavelength at 450 nm/650 nm.
# as §6, with “μg/ml TRAIL-R1 or” for “μg/ml”
# [11] = test system: binding of humanized chimeric CTB003 to TRAIL-R1; assay: Competitive inhibition ELISA with polypeptides; design: species or system human; settings: various concentrations of peptide
# Sequence of binding of humanized chimeric CTB003 to TRAIL-R1 (as listed by the source, change not shown): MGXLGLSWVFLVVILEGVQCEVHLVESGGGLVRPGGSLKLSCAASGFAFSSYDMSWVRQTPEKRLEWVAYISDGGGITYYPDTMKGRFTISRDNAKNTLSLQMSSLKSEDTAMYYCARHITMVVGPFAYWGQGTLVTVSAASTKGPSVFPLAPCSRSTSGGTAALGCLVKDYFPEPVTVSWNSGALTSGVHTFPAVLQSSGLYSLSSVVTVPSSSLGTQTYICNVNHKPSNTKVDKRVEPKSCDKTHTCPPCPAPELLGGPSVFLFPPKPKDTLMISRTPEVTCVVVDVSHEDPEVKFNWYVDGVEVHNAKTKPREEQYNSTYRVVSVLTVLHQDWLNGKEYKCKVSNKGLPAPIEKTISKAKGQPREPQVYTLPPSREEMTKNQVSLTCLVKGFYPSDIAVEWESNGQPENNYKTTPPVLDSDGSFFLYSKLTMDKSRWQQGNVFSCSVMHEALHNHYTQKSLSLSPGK
# Sequence of binding of humanized chimeric CTB003 to TRAIL-R1 (as listed by the source, change not shown): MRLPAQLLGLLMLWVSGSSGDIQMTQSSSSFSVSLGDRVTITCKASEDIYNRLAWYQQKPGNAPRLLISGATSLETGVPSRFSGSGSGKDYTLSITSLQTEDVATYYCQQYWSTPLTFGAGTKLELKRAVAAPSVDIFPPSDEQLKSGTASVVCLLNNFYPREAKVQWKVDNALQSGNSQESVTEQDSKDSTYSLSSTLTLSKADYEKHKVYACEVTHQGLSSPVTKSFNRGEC
# Sequence of binding of humanized chimeric CTB003 to TRAIL-R1 (O00220 24-239 partner limits assumed): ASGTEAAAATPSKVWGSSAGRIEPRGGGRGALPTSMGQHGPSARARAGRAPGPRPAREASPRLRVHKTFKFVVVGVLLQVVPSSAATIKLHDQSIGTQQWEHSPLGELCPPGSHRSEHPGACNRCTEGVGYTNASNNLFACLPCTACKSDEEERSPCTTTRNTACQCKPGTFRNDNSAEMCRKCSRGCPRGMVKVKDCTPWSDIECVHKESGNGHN
# Procedure: as §6, with “μg/ml TRAIL-R1 or” for “μg/ml”
# [12] = test system: binding of CTB003 to TRAIL-R1; assay: Competitive inhibition ELISA with polypeptides; design: species or system human; settings: 1 μg/ml CTB003, various concentrations of peptide
# Sequence of binding of CTB003 to TRAIL-R1 (O00220 24-239 partner limits assumed): as above
# Procedure: as §6, with “μg/ml TRAIL-R1 or” for “μg/ml”
# [13] = test system: binding of humanized chimeric CTB003 to TRAIL-R2; assay: Competitive inhibition ELISA with polypeptides; design: species or system human; settings: various concentrations of peptide
# Sequence of binding of humanized chimeric CTB003 to TRAIL-R2 (O14763 56-210 partner limits assumed): as the sequence (O14763 56-210 partner limits assumed) above
# Procedure: as §6, with “μg/ml TRAIL-R1 or” for “μg/ml”
compound,measurement,setting,value
"COc1cccc2c1C(=O)c1c(O)c3c(c(O)c1C2=O)C[C@@](O)(C(=O)CO)C[C@@H]3O[C@H]1C[C@H](N)[C@H](O)[C@H](C)O1 [Adriamycin, reference compound]",effect on tumor,"[1]; Adriamycin alone, 100 μg per dose i.p. twice a week for three times",tumor inhibition was observed but tumor size reduction was not remarkable
same,effect on CTB003 killing,[2],synergistically enhanced CTB003 killing in a dose-dependent fashion
"CCc1c2c(nc3ccc(OC(=O)N4CCC(N5CCCCC5)CC4)cc13)-c1cc3c(c(=O)n1C2)COC(=O)[C@]3(O)CC [CTP-11, reference compound]",effect on CTB003 killing,[3],synergistically enhanced CTB003 killing in a dose-dependent fashion
"N.N.[Cl][Pt][Cl] [Cisplatin, reference compound]",effect on CTB003 killing,[4],synergistically enhanced CTB003 killing in a dose-dependent fashion
"Nc1ccn([C@@H]2O[C@H](CO)[C@@H](O)C2(F)F)c(=O)n1 [Gemcitabine, reference compound]",effect on CTB003 killing,[5],synergistically enhanced CTB003 killing in a dose-dependent fashion
CC(=O)O[C@H]1C(=O)[C@@]2(C)[C@H]([C@H](OC(=O)c3ccccc3)[C@]3(O)C[C@H](OC(=O)[C@H](O)[C@@H](NC(=O)c4ccccc4)c4ccccc4)C(C)=C1C3(C)C)[C@]1(OC(C)=O)CO[C@@H]1C[C@@H]2O [Taxol],effect on CTB003 killing,[6],synergistically enhanced CTB003 killing in a dose-dependent fashion
CTB006: Murine monospecific antibody directed to TRAIL-R2 receptor; hybridoma CGMCC 1691,effect on tumor,"[1]; CTB006 alone, 100 μg i.p. twice a week for three times",tumor inhibition was observed but tumor size reduction was not remarkable
same,effect on CTB003 killing,[3],synergistically enhanced CTB003 killing in a dose-dependent fashion
same,cell killing by antibody alone,[3]; single antibody,did not induce cell killing
same,cell surface staining,[7],only weakly stained
same,cell surface staining,[8],positively stained
same,susceptibility to antibody-induced apoptosis,[9],not susceptible
"MVKVGDCTPWSDIECVHKESGTKHSGEAPA [peptide G, TRAIL-R2 (aa164-aa193), reference compound]",inhibition of antibody binding,[10],inhibited the binding of CTB003 to TRAIL-R2 in a dose-dependent manner
"RKCRTGCPRGMVKVGDCTPWSDIECVHKES [peptide F, TRAIL-R2 (aa154-aa183), reference compound]",inhibition of antibody binding,[10],inhibited the binding of CTB003 to TRAIL-R2 in a dose-dependent manner
VGDCTPWSDIECVHKE [peptide H],inhibition of antibody binding,[11],inhibited the binding of humanized chimeric CTB003 to TRAIL-R1 in a dose-dependent manner
same,inhibition of antibody binding,[12],inhibited the binding of CTB003 to TRAIL-R1 in a dose-dependent manner
same,inhibition of antibody binding,[13],inhibited the binding of humanized chimeric CTB003 to TRAIL-R2 in a dose-dependent manner
same,inhibition of antibody binding,[10],inhibited the binding of CTB003 to TRAIL-R2 in a dose-dependent manner
VKDCTPWSDIECVHKE [peptide I],inhibition of antibody binding,[11],inhibited the binding of humanized chimeric CTB003 to TRAIL-R1 in a dose-dependent manner
same,inhibition of antibody binding,[12],inhibited the binding of CTB003 to TRAIL-R1 in a dose-dependent manner
same,inhibition of antibody binding,[13],inhibited the binding of humanized chimeric CTB003 to TRAIL-R2 in a dose-dependent manner
same,inhibition of antibody binding,[10],inhibited the binding of CTB003 to TRAIL-R2 in a dose-dependent manner
